Biological target: human TMEM16A (TMEM16Aabc variant) (Homo sapiens, UniProt Q5XXA6, DEL476-501, form not given)
Assay: Automated whole-cell patch clamp (Qpatch) TMEM16A potentiator assay in FRT cells stably expressing human TMEM16A
Format: cell-based
Conditions: for % Potentiation @ 3.33 μM Avg: 3.33 μM solution of test compound, percentage increase of baseline TMEM16A current; for EC50: calculated EC50, Qpatch TMEM16A current at +70 mV
Excerpt: FIG. 1 is an example trace from a whole-cell patch clamp (Qpatch) TMEM16A potentiator assay as used in Biological Example 95 and illustrates the methodology used in the assay. In FIG. 1: S is Saline; V is Vehicle; #1 is Test Compound concentration #1; #2 is Test Compound concentration 2; #3 is Test Compound concentration 3; #4 is Test Compound concentration 4; #5 is Test Compound concentration #5; and R is Reference. The arrow in column V represents the baseline current, IBL. The arrows in each of the columns #1, #2, #3, #4, #5 and R represent I#[1], I#[2], I#[3], I#[4], I#[5] and I[Ref], which are the peak currents during the incubation periods for test compounds concentrations #1 to #5 and the Reference.
Fisher rat thyroid (FRT) cells stably expressing human TMEM16A (TMEM16Aabc variant; Dr Luis Galietta, Insituto Giannina, Italy) were cultured in T-75 flasks in Hams F-12 media with Coon's modification (Sigma) supplemented with 10% (v/v) foetal bovine serum, penicillin-streptomycin (10,000 U/mL/10000 μg/mL), G-418 (750 μg/mL), L-glutamine (2 mM) and sodium bicarbonate solution (7.5% v/v). At ˜90% confluence cells were harvested for experiments by detachment with a 2:1 (v/v) mixture of Detachin (BMS Biotechnology) and 0.25% (w/v) trypsin-EDTA. Cells were diluted to a density of 3.5-4.5×10^6 cells/mL with media consisting of CHO-S-SFM II (Sigma), 25 mM HEPES (Sigma) and Soy bean trypsin inhibitor (Sigma).
FRT-TMEM16A cells were whole-cell patch clamped using an automated planar patch clamp system (Qpatch, Sophion). Briefly, once high resistance (GOhm) seals were established between the cells and the planar recording array the patch was ruptured using suction pulses to establish the whole-cell recording configuration of the patch clamp technique. The assay employed the following solutions (all reagents Sigma): Intracellular solution (mM): N-methyl-D-glucamine 130, CaCl2 18.2, MgCl2 1, HEPES 10, EGTA 10, BAPTA 20, Mg-ATP 2, pH 7.25, 325 mOsm with sucrose.
Extracellular solution (mM): N-methyl-D-glucamine 130, CaCl2 2, MgCl2 1, HEPES 10, pH 7.3, 320 mOsm with sucrose.
The intracellular solution buffers intracellular calcium at levels required to give ˜20% activation of the maximal TMEM16A mediated current (EC20 for calcium ions). Cells were voltage clamped at a holding potential of −70 mV and a combined voltage step (to +70 mV)/ramp (−90 my to +90 mV) was applied at 0.05 Hz. After a period of current stabilisation test compounds, solubilised in 100% (v/v) DMSO and subsequently diluted into extracellular solution, were applied to generate a cumulative concentration response curve. Each concentration of test compound was incubated for 5 minutes before addition of the next concentration. After the final concentration was tested a supramaximal concentration of either a known active positive modulator or the TMEM16A inhibitor, CaCCinhA01 (Del La Fuente et al, 2008) was added to define the upper and lower limits of the assay.
Compound activity was quantified by measuring the increase in current upon compound addition and expressing this as a percentage increase of baseline TMEM16A current level. Percentage increases in current were determined for each concentration and the data plotted as a function of concentration using either the Qpatch software or Graphpad Prism v6.05 providing the concentration which gave 50% of its maximal effect (EC50) and maximum efficacy (percentage of baseline increase).
In FIG. 1, IBL equals baseline current, I[#1] equals the peak current during test compound concentration 1 incubation period and so on.
Peak TMEM16A current at +70 mV was plotted as a function of time over the assay period. Baseline current (IBL) was measured after a period of stabilisation. The increase in current for each compound addition was determined by taking the peak current during the incubation period and subtracting the current from the previous recording period and then expressing this as a percentage of the baseline current. […]

Chain of human TMEM16A (TMEM16Aabc variant) (Q5XXA6 with tags, fused parts or gaps DEL476-501): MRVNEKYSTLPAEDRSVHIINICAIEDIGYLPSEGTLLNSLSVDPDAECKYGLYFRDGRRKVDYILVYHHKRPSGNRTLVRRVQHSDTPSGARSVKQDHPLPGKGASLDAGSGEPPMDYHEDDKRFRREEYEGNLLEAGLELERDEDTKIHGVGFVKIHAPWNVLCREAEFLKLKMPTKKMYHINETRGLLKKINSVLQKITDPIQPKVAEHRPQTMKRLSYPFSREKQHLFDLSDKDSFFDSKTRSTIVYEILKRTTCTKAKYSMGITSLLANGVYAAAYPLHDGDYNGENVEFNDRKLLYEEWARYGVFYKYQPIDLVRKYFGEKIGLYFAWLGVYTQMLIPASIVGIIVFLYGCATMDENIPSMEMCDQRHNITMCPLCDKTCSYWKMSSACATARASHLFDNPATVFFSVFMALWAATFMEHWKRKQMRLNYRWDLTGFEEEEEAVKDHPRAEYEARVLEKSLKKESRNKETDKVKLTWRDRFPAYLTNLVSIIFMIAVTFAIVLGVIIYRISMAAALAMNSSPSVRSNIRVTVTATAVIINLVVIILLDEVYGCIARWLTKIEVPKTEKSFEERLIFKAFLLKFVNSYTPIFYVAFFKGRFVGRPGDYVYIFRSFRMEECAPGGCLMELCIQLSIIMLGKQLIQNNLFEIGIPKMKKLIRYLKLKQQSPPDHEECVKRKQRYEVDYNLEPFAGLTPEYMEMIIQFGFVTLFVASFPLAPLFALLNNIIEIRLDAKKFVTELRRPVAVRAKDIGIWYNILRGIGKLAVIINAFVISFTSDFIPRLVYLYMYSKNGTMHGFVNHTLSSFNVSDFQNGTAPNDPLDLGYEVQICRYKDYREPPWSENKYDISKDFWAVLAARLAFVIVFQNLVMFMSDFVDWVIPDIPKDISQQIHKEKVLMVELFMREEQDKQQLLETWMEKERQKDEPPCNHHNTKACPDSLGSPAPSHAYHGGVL

| Compound | % Potentiation @ 3.33 μM Avg [%] | EC50 [nM] |
| --- | --- | --- |
| CC(C)(CCNC(=O)OC(C)(C)C)NC(=O)c1cc(NC(=O)Cc2cc(Cl)ccc2O)ccn1 [Example 1.8, tert-Butyl N-[3-[[4-[[2-(5-chloro-2-hydroxy-phenyl)acetyl]amino]pyridine-2-carbonyl]amino]-3-methyl-butyl]carbamate] | 300 | 410 |
| COCC(C)(C)NC(=O)c1cccc(NC(=O)Cc2ccccc2O)c1 [Example 1.9, 3-[[2-(2-Hydroxyphenyl)acetyl]amino]-N-(2-methoxy-1,1-dimethyl-ethyl)benzamide] | 79 | 4200 |
| O=C(Cc1cc(Cl)ccc1O)Nc1ccnc(C(=O)NC2CCCCC2)c1 [Example 1.10, 4-[[2-(5-Chloro-2-hydroxy-phenyl)acetyl]amino]-N-cyclohexyl-pyridine-2-carboxamide] | 200 | 80 |
| CC(C)(C)NC(=O)c1cccc(NC(=O)Cc2cc(Cl)ccc2O)c1 [Example 2, N-tert-Butyl-3-[[2-(5-chloro-2-hydroxy-phenyl)acetyl]amino]benzamide] | 262 | 270 |
| CC(C)(C)NC(=O)c1cccc(NC(=O)Cc2cc(F)ccc2O)c1 [Example 2.1, N-tert-Butyl-3-[[2-(5-fluoro-2-hydroxy-phenyl)acetyl]amino]benzamide] | 216 | 490 |
| CC(C)(C)NC(=O)c1cccc(NC(=O)Cc2cccc(F)c2O)c1 [Example 2.2, N-tert-Butyl-3-[[2-(3-fluoro-2-hydroxy-phenyl)acetyl]amino]benzamide] | 158 | 1610 |
| CC(C)(C)NC(=O)c1cccc(NC(=O)Cc2ccc(F)cc2O)c1 [Example 2.3, N-tert-Butyl-3-[[2-(4-fluoro-2-hydroxy-phenyl)acetyl]amino]benzamide] | 203 | 590 |
| CC(C)(C)NC(=O)c1cccc(NC(=O)Cc2c(O)cccc2O)c1 [Example 2.4, N-tert-Butyl-3-[[2-(2,6-dihydroxyphenyl)acetyl]amino]benzamide] | 53 | – |
| CC(C)(C)NC(=O)c1cccc(NC(=O)CCc2ccccc2O)c1 [Example 2.5, N-tert-Butyl-3-[3-(2-hydroxyphenyl)propanamido]benzamide] | 51 | 1340 |
| COc1cccc(O)c1CC(=O)Nc1cccc(C(=O)NC(C)(C)C)c1 [Example 2.6, N-tert-Butyl-3-[[2-(2-hydroxy-6-methoxy-phenyl)acetyl]amino] benzamide] | 140 | 2910 |
| CC(C(=O)Nc1cccc(C(=O)NC(C)(C)C)c1)c1ccccc1O (stereo not shown) [Example 2.7, N-tert-Butyl-3-[2-(2-hydroxyphenyl)propanamido]benzamide] | 51 | 8190 |
| COc1cccc(CC(=O)Nc2cccc(C(=O)NC(C)(C)C)c2)c1O [Example 2.8, N-tert-Butyl-3-[[2-(2-hydroxy-3-methoxy-phenyl)acetyl]amino] benzamide] | 74 | 4550 |
| CC(C)(C)NC(=O)c1cccc(NC(=O)Cc2cc(F)cc(F)c2O)c1 [Example 2.9, N-tert-Butyl-3-[[2-(3,5-difluoro-2-hydroxy-phenyl)acetyl]amino] benzamide] | 148 | 990 |
| CC(C)(C)NC(=O)c1cccc(NC(=O)Cc2cc(Br)ccc2O)c1 [Example 2.10, 3-[[2-(5-Bromo-2-hydroxy-phenyl)acetyl]amino]-N-tert-butyl-benzamide] | 133 | 460 |
| CC(C)(C)NC(=O)c1cccc(NC(=O)Cc2c(O)ccc(F)c2F)c1 [Example 2.11, N-tert-Butyl-3-[[2-(2,3-difluoro-6-hydroxy-phenyl)acetyl]amino] benzamide] | 126 | 430 |
| CC(C)(C)NC(=O)c1cccc(NC(=O)Cc2cc(F)c(F)cc2O)c1 [Example 2.12, N-tert-Butyl-3-[[2-(4,5-difluoro-2-hydroxy-phenyl)acetyl]amino] benzamide] | 111 | 310 |
| CCC(C)(C)NC(=O)c1cccc(NC(=O)Cc2ccc(F)cc2O)c1 [Example 2.13, N-(1,1-Dimethylpropyl)-3-[[2-(4-fluoro-2-hydroxy-phenyl)acetyl]amino] benzamide] | 126 | 460 |
| COc1ccc(CC(=O)Nc2cccc(C(=O)NC(C)(C)C)c2)c(O)c1 [Example 2.14, N-tert-Butyl-3-[[2-(2-hydroxy-4-methoxy-phenyl)acetyl]amino]benzamide] | 100 | 1780 |
| CC(C)(C)NC(=O)c1cccc(NC(=O)Cc2c(O)cccc2F)c1 [Example 2.15, N-tert-Butyl-3-[[2-(2-fluoro-6-hydroxy-phenyl)acetyl]amino]benzamide] | 163 | 490 |
| CC(C)(C)NC(=O)c1cccc(NC(=O)Cc2cccc(O)c2O)c1 [Example 2.16, N-tert-Butyl-3-[[2-(2,3-dihydroxyphenyl)acetyl]amino]benzamide] | 60 | 4270 |
| CC(C)(C)NC(=O)c1cccc(NC(=O)Cc2cc(C(F)(F)F)ccc2O)c1 [Example 2.17, N-tert-Butyl-3-[[2-[2-hydroxy-5-(trifluoromethyl)phenyl]acetyl]amino]benzamide] | 172 | 270 |
| COC(=O)c1ccc(O)c(CC(=O)Nc2cccc(C(=O)NC(C)(C)C)c2)c1 [Example 2.18, Methyl 3-[2-[3-(tert-butylcarbamoyl)anilino]-2-oxo-ethyl]-4-hydroxy-benzoate] | 118 | 1410 |
| CC(C)(C)NC(=O)c1cccc(NC(=O)Cc2ccc(C(F)(F)F)cc2O)c1 [Example 2.19, N-tert-Butyl-3-[[2-[2-hydroxy-4-(trifluoromethyl)phenyl]acetyl]amino]benzamide] | 249 | 460 |
| CC(C)(C)NC(=O)c1cc(NC(=O)Cc2cc(Cl)ccc2O)ccn1 [Example 3, N-tert-Butyl-4-[[2-(5-chloro-2-hydroxy-phenyl)acetyl]amino]pyridine-2-carboxamide] | 287 | 110 |
| CCC(C)(C)NC(=O)c1cc(NC(=O)Cc2ccc(F)cc2O)ccn1 [Example 3.1a, N-(1,1-Dimethylpropyl)-4-[[2-(4-fluoro-2-hydroxy-phenyl)acetyl]amino]pyridine-2-carboxamide] | 128 | 180 |
| CC(C)(C)NC(=O)c1cc(NC(=O)Cc2ccc(F)cc2O)ccn1 [Example 3.2a, N-tert-Butyl-4-[[2-(4-fluoro-2-hydroxy-phenyl)acetyl]amino]pyridine-2-carboxamide] | 116 | 160 |
| CC(C)(C)NC(=O)c1cc(NC(=O)Cc2c(O)cccc2Cl)ccn1 [Example 3.3a, N-tert-Butyl-4-[[2-(2-chloro-6-hydroxy-phenyl)acetyl]amino]pyridine-2-carboxamide] | 91 | 70 |
| CC(C)(C)NC(=O)c1cc(NC(=O)Cc2cc(Cl)c(Br)cc2O)ccn1 [Example 3.4a, 4-[[2-(4-Bromo-5-chloro-2-hydroxy-phenyl)acetyl]amino]-N-tert-butyl-pyridine-2-carboxamide] | 206 | 140 |

Source: US20200361871A1 (Enterprise Therapeutics Ltd., priority 2018, published 2020)
